According to patent publication US6472526B1, “Imidazole derivatives having an inhibitory activity for farnesyl transferase and process for preparation thereof” (LG Chemical Ltd., priority 1997, dated 2002):

Columns and labels:
Ras farnesyl transferase [1] = molecular target: T1, Ras farnesyl transferase (Rattus norvegicus, UniProt Q02293+Q04631); experiment: In vivo (cellular) inhibitory activity for Ras farnesyl transferase, Rat2 cell line transformed with fused protein of H-Ras substituted with polybasic lysine domain at C-terminus of K-Ras; type: cell-based
T1 construct: endogenous in cells; host or cells: Rat2 fibroblasts transformed with H-Ras or with an H-Ras/K-Ras C-terminus fusion
Summary of the method: (§1)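 Transformed Rat2 fibroblasts (H-Ras or H-Ras/K-Ras polybasic-tail fusion) treated with compound in 1% DMSO; after 4 h labelled with [35S]methionine 150 μCi/ml for 20 h. Lysates immunoprecipitated with anti-Ras Y13-259, resolved by 13.5% SDS-PAGE and autoradiography; CIC50 = concentration inhibiting 50% of Ras farnesylation from band intensities.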

Ras farnesyl transferase [2] = molecular target: T2, Ras farnesyl transferase (Homo sapiens, UniProt P49354+P49356); experiment: In vitro inhibitory activity for Ras farnesyl transferase, K-Ras substrate; type: biochemical
T2 construct: made in house

Ras farnesyl transferase [3] = molecular target: T1, Ras farnesyl transferase; experiment: In vivo (cellular) inhibitory activity for Ras farnesyl transferase, Rat2 cell line which expresses C-Harvey-Ras protein; type: cell-based
Summary of the method: as §1

Ras farnesyl transferase [4] = molecular target: T2, Ras farnesyl transferase; experiment: In vitro inhibitory activity for Ras farnesyl transferase, H-Ras substrate; type: biochemical
[5] = Rat2 cell line transformed with H-Ras fused with polybasic lysine domain of K-Ras C-terminus, concentration inhibiting 50% of farnesyl bonding, read-out: K-Ras CIC50
[6] = in vitro farnesyl transferase assay, K-Ras, read-out: K-Ras IC50
[7] = Rat2 cell line expressing C-Harvey-Ras, concentration inhibiting 50% of farnesyl bonding of Ras protein, read-out: H-Ras CIC50
[8] = recombinant farnesyl transferase 4.5 nM, Ras substrate protein 1.5 μM, tritium-farnesylpyrophosphate 0.15 μM, 30 minutes at 37° C., read-out: H-Ras IC50

SMILES | IC50 (Ras farnesyl transferase [1]; [5]) | IC50 (Ras farnesyl transferase [2]; [6]) | IC50 (Ras farnesyl transferase [3]; [7]) | IC50 (Ras farnesyl transferase [4]; [8]) | IC50 (Ras farnesyl transferase [1]) | IC50 (Ras farnesyl transferase [2]) | IC50 (Ras farnesyl transferase [3]) | IC50 (Ras farnesyl transferase [4])
O=C(c1ccccc1Cl)c1cn(Cc2c[nH]cn2)cc1-c1cccc2ccccc12 [Compound 55] | 10000 to 100000 nM | 100 to 10000 nM | 1000 to 50000 nM | 60 nM | – | – | – | –
O=C(c1ccc(-c2ccccc2)cc1)c1cn(Cc2c[nH]cn2)cc1-c1cccc2ccccc12 [Compound 66] | 10000 to 100000 nM | 100 to 10000 nM | 1000 to 50000 nM | 120 nM | – | – | – | –
COC(=O)C(CCSC)NC(=O)c1cn(Cc2cncn2Cc2ccc(C#N)cc2)cc1-c1cccc2ccccc12 (stereo in doubt) [Compound 100, (S)-1-[1-(4-Cyanobenzyl)-1H-imidazol-5-yl]methyl-3-[N-(1-methoxycarbonyl-3-methylthio)propyl]carbamoyl-4-(naphthalen-1-yl)-1H-pyrrole] | > 20000 nM | 100 to 10000 nM | > 1000 nM | 1800 nM | – | – | – | –
COCCN(C)C(=O)c1cn(Cc2cncn2CCc2ccccc2F)cc1-c1cccc2ccccc12 [Compound 21, 1-[1-(2-Fluoro)phenethyl-1H-imidazol-5-yl]methyl-3-[N-(2-methoxyethyl)-N-methyl]carbamoyl-4-(naphthalen-1-yl)-1H-pyrrole] | 10000 to 50000 nM | 1 nM | 21 nM | 1 nM | – | – | – | –
O=C(c1ccc(Br)cc1)c1cn(Cc2c[nH]cn2)cc1-c1cccc2ccccc12 [Compound 49] | < 20000 nM | 485 nM | 700 nM | 30 nM | – | – | – | –
COCCN(C)C(=O)c1cn(Cc2cncn2Cc2ccc(F)cc2)cc1-c1cccc2ccccc12 [Compound 127, 1-[1-(4-fluorobenzyl)-1H-imidazol-5-yl]methyl-3[N-(2-methoxyethyl)-N-methyl]carbamoyl-4-(naphthalen-1-yl)-1H-pyrrole] | 5000 nM | 5 nM | 15 nM | 2 nM | – | – | – | –
O=C(c1cn(CCn2ccnc2)cc1-c1cccc2ccccc12)N1CCOCC1 [Compound 106] | 10000 to 100000 nM | 10000 to 100000 nM | 1000 to 50000 nM | 900 nM | – | – | – | –
Cc1ccc(C(=O)c2cn(Cc3c[nH]cn3)cc2-c2cccc3ccccc23)cc1 [Compound 52] | 10000 to 100000 nM | 100 to 10000 nM | 1000 to 50000 nM | 70 nM | – | – | – | –
COCCN(C)C(=O)c1cn(Cc2cncn2CCc2ccc(Cl)cc2)cc1-c1cccc2ccccc12 [Compound 39, 1-[1-(4-Chloro)phenethyl-1H-imidazol-5-yl]methyl-3[N-(2-methoxyethyl)-N-methyl]carbamoyl-4-(naphthalen-1-yl)-1H-pyrrole] | 10000 to 50000 nM | 3 nM | 20 nM | 2 nM | – | – | – | –
O=C(c1cn(Cc2cncn2Cc2cccc3ccccc23)cc1-c1cccc2ccccc12)N1CCOCC1 [Compound 6] | 10000 to 50000 nM | 2 nM | 25 nM | 1 nM | – | – | – | –
COC(=O)[C@H](CC(C)C)NC(=O)c1cn(Cc2cncn2Cc2ccc(C#N)cc2)cc1-c1cccc2ccccc12 [Compound 102] | > 50000 nM | 22000 nM | 1000 to 50000 nM | 450 nM | – | – | – | –
O=C(c1ccsc1)c1cn(Cc2c[nH]cn2)cc1-c1cccc2ccccc12 [Compound 45] | 10000 to 100000 nM | 100 to 10000 nM | 1000 to 50000 nM | 130 nM | – | – | – | –
COCCN(C)C(=O)c1cn(Cc2cncn2C)nc1-c1cccc2ccccc12 [Compound 157, 1-[1-Methyl-1H-imidazol-5-ylmethyl]-4-[N-(2-methoxyethyl)-N-methyl]-carbamoyl-3-(naphthalen-1-yl)-1H-pyrazole] | > 50000 nM | 5000 nM | 100 nM | 10 nM | – | – | – | –
COCCN(C)C(=O)c1cn(Cc2cncn2CCc2ccccc2)cc1-c1cccc2ccccc12 [Compound 14, 3-[N-(2-Methoxyethyl)-N-methyl]carbamoyl-4-(naphthalen-1-yl)-1-[1-(phenethyl)-1H-imidazol-5-ylmethyl]-1H-pyrrole] | 10000 to 50000 nM | 5 nM | 12.5 nM | 2 nM | – | – | – | –
CN1CCN(C(=O)c2cn(Cc3cncn3CCCc3ccccc3)cc2-c2cccc3ccccc23)CC1 [Compound 28] | 10000 to 30000 nM | 2 nM | 20 nM | 1 nM | – | – | – | –
O=C(c1cn(Cc2c[nH]cn2)cc1-c1cccc2ccccc12)c1cccc2ccccc12 [Compound 69] | – | – | – | – | 10000 to 100000 nM | 100 to 10000 nM | 1000 to 50000 nM | 550 nM

SMILES | IC50 (Ras farnesyl transferase [1]; [5]) | IC50 (Ras farnesyl transferase [2]; [6]) | IC50 (Ras farnesyl transferase [3]; [7]) | IC50 (Ras farnesyl transferase [4]; [8]) | IC50 (Ras farnesyl transferase [1]) | IC50 (Ras farnesyl transferase [2]) | IC50 (Ras farnesyl transferase [3]) | IC50 (Ras farnesyl transferase [4])
COCCN(C)C(=O)c1cn(Cc2cncn2CC2CCCCC2)cc1-c1cccc2ccccc12 [Compound 116, 1-(1-Cyclohexylmethyl-1H-imidazol-5-yl)methyl-3-[N-(2-methoxyethyl)-N-methyl]carbamoyl-4-(naphthalen-1-yl)-1H-pyrrole] | < 50000 nM | 62 nM | 30 nM | 4 nM | – | – | – | –
Cc1cccc(C(=O)c2cn(Cc3c[nH]cn3)cc2-c2cccc3ccccc23)c1 [Compound 51] | 10000 to 100000 nM | 100 to 10000 nM | 1000 to 50000 nM | 270 nM | – | – | – | –
O=C(c1cn(Cc2c[nH]cn2)cc1-c1cccc2ccccc12)N1CCS(=O)(=O)CC1 [Compound 87] | 10000 to 100000 nM | 100 to 10000 nM | 1000 to 50000 nM | 60 nM | – | – | – | –
COc1cccc(C(=O)c2cn(Cc3c[nH]cn3)cc2-c2cccc3ccccc23)c1 [Compound 53] | 10000 to 100000 nM | 100 to 10000 nM | 1000 to 50000 nM | 300 nM | – | – | – | –
COCCN(C)C(=O)c1cn(Cc2cncn2CCc2ccc(C)cc2)cc1-c1cccc2ccccc12 [Compound 37, 3-[N-(2-Methoxyethyl)-N-methyl]carbamoyl-1-[1-(4-methyl)phenethyl-1H-imidazol-5-yl]methyl-4-(naphthalen-1-yl)-1H-pyrrole] | 10000 to 50000 nM | 3 nM | 25 nM | 2 nM | – | – | – | –
COCCN(C)C(=O)c1cn(Cc2cncn2Cc2ccc(Br)cc2)cc1-c1cccc2ccccc12 [Compound 111, 1-[1-(4-Bromobenzyl)-1H-imidazol-5-yl]methyl-3-[N-(2-methoxyethyl)-N-methyl]carbamoyl-4-(naphthalen-1-yl)-1H-pyrrole] | 4000 nM | 2 nM | 30 nM | 2 nM | – | – | – | –
CN1CCN(C(=O)c2cn(Cc3cncn3CCc3ccccc3F)cc2-c2cccc3ccccc23)CC1 [Compound 22, 1-[1-(2-Fluoro)phenethyl-1H-imidazol-5-yl]methyl-3-[4-methylpiperazin-1-yl]carbonyl-4-(naphthalen-1-yl)-1H-pyrrole] | 10000 to 50000 nM | 2 nM | 20 nM | 1 nM | – | – | – | –
Cc1cccc(Cn2cncc2Cn2cc(C(=O)N3CCN(C)CC3)c(-c3cccc4ccccc34)c2)c1 [Compound 138, 1-[1-(3-Methylbenzyl)-1H-imidazol-5-yl]methyl-3-(4-methylpiperazin-1-yl)carbonyl-4-(naphthalen-1-yl)-1H-pyrrole] | 10000 to 50000 nM | 3.5 nM | 25 nM | 1.4 nM | – | – | – | –
COC(=O)c1sc(Cc2cncn2CC2CCN(C(=O)OCc3ccccc3)CC2)nc1-c1cccc2ccccc12 [Compound 150] | > 50000 nM | > 50000 nM | > 50000 nM | 8000 nM | – | – | – | –
COCCN(C)C(=O)c1cn(Cc2cncn2CCc2ccccc2Cl)cc1-c1cccc2ccccc12 [Compound 23, 1-[1-(2-Chloro)phenethyl-1H-imidazol-5-yl]methyl-3-[N-(2-methoxyethyl)-N-methyl]carbamoyl-4-(naphthalen-1-yl)-1H-pyrrole] | 10000 to 50000 nM | 2 nM | 23 nM | 2 nM | – | – | – | –
CSCc1ccc(C(=O)c2cn(Cc3c[nH]cn3)cc2-c2cccc3ccccc23)cc1 [Compound 61] | 10000 to 100000 nM | 100 to 10000 nM | 1000 to 50000 nM | 740 nM | – | – | – | –
COCCN(C)C(=O)c1cn(Cc2c[nH]cn2)cc1-c1cccc2ccccc12 [Compound 95] | 10000 to 50000 nM | 100 to 1000 nM | 10 to 100 nM | 0.7 nM | – | – | – | –
COCCN(C)C(=O)c1cn(Cc2cncn2CCc2cccc(Cl)c2)cc1-c1cccc2ccccc12 [Compound 25, 1-[1-(3-Chloro)phenethyl-1H-imidazol-5-yl]methyl-3-[N-(2-methoxyethyl)-N-methyl]carbamoyl-4-(naphthalen-1-yl)-1H-pyrrole] | 10000 to 50000 nM | 5 nM | 15 nM | 2 nM | – | – | – | –
COCCN(C)C(=O)c1cn(Cc2cncn2CCc2cccc3ccccc23)cc1-c1cccc2ccccc12 [Compound 31, 3-[N-(2-Methoxyethyl)-N-methyl]carbamoyl-4-(naphthalen-yl)-1-{1-[2-(naphthalen-1-yl)ethyl]-1H-imidazol-5-yl}methyl-1H-pyrrole] | 10000 to 20000 nM | 5 nM | 12 nM | 2 nM | – | – | – | –
Cc1ccc(CCn2cncc2Cn2cc(C(=O)N3CCN(C)CC3)c(-c3cccc4ccccc34)c2)cc1 [Compound 38, 1-[1-(4-Methyl)phenethyl-1H-imidazol-5-yl]methyl-3-[4-methylpiperazin-1-yl]carbonyl-4-(naphthalen-1-yl)-1H-pyrrole] | 10000 to 50000 nM | 4 nM | 25 nM | 2 nM | – | – | – | –
